Experiment [1] deals with T1, human recombinant adrenergic α2A receptor (Homo sapiens, UniProt P08913).
T1 construct: expressed in transfected cells; host or cells: insect Sf9 cells
T1 sequence (P08913 1-465): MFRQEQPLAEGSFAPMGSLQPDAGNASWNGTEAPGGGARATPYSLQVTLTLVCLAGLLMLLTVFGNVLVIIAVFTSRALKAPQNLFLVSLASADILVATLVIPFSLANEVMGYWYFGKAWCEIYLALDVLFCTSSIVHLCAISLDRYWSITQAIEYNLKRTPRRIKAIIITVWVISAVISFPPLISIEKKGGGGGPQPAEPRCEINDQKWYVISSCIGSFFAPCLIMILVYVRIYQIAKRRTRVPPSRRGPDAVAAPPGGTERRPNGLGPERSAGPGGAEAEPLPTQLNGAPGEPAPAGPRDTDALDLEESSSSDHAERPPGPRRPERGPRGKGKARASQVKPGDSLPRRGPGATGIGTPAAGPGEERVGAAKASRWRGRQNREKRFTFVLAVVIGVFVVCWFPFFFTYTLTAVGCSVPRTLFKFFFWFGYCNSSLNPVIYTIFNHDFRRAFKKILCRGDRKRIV
Briefly: Radioligand binding, adrenergic α2A ([3H]MK-912). Conditions: for Percentage inhibition of ligand binding, Adrenergic α2A (0.1 μM): compound at 0.1 μM. The method, boiled down: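 Displacement of 1 nM [3H]MK-912 from receptor produced in insect Sf9 cells was measured after 60 min at 25 °C. Readout: percent inhibition of specific binding.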

The target in experiment [2] is T2, human recombinant adrenergic α2B receptor (Homo sapiens, UniProt P18089).
T2 construct: expressed in transfected cells; host or cells: CHO-K1
T2 sequence (P18089 1-450): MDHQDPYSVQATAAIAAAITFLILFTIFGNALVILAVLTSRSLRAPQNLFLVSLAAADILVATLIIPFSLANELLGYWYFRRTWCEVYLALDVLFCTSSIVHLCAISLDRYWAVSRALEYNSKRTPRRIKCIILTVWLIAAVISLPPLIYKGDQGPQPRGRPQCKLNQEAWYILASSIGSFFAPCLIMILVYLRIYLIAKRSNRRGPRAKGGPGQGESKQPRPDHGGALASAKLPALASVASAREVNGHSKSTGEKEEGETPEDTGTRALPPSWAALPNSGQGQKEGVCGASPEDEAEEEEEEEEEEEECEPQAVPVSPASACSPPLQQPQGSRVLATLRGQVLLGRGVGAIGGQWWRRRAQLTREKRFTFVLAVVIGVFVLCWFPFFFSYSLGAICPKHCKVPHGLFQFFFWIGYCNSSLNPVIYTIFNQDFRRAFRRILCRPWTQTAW
The experiment in a line: Radioligand binding, adrenergic α2B ([3H]Rauwolscine). The note with it: for Percentage inhibition of ligand binding, Adrenergic α2B (0.03 μM): compound at 0.03 μM; for Percentage inhibition of ligand binding, Adrenergic α2B (0.03 μM) / inhibition at 0.03 µM: [3H]Rauwolscine, repeat datapoints each shown; for inhibition at 0.03 µM: read-out: Percentage inhibition of ligand binding, Adrenergic α2B (0.03 μM), compound at 0.03 μM. In short, it runs like this: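 Assay used CHO-K1-expressed human α2B receptor in Tris-HCl pH 7.4 buffer with MgCl2, EDTA and BSA; 60 min incubation at 25 °C.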

For experiment [3], the target named is T3, rat adrenergic α1B receptor (Rattus norvegicus, UniProt P15823).
T3 construct: rat adrenergic α1B receptor obtained from Wistar Rat liver; from tissue; host or cells: Wistar rat liver
T3 sequence (P15823 1-515): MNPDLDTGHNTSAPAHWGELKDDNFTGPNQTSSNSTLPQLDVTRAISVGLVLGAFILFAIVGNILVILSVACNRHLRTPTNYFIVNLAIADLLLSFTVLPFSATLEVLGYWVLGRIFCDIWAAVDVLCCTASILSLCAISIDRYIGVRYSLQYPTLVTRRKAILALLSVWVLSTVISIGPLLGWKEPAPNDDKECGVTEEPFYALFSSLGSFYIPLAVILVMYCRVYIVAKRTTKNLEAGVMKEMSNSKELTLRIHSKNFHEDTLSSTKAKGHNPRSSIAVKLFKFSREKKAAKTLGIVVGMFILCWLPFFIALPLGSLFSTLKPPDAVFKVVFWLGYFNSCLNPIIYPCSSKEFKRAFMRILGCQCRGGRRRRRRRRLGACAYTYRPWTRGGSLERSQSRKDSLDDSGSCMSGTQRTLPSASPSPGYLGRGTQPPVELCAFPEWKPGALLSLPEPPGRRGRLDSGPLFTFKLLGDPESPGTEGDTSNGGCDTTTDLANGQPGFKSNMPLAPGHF
The experiment in a line: Radioligand binding, adrenergic α1B ([3H]Prazosin). The note with it: [3H]Prazosin, repeat datapoints each shown; for Percentage inhibition of ligand binding, Adrenergic α1B (0.1 μM): compound at 0.1 μM; for inhibition at 0.1 µM: read-out: Percentage inhibition of ligand binding, Adrenergic α1B (0.1 μM), compound at 0.1 μM. The method, boiled down: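 Specific binding, taken as total minus that remaining with 10 μM phentolamine, is measured after filtration and counting. Rat liver receptor preparation and 0.25 nM [3H]prazosin are incubated with compound in 50 mM Tris-HCl (pH 7.4, 0.5 mM EDTA) at 25° C for 60 min. Activity is reported as percent inhibition.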

Setting [4] is: [3H]MK-912, repeat datapoints each shown.

The structures appear in SMILES notation. Several values for one entry are separate records, joined by “and”; a condition that tells them apart may be missing. Identical values can stand only once.

With `CN1CCc2c(c3cc(Cl)cnc3n2CC(C)(O)c2ccc(C(F)(F)F)nc2)C1` (single isomer, unassigned) [II-109a], the “Percentage inhibition of ligand binding, Adrenergic α2A (0.1 μM)” value in experiment [1] (setting [4]) is listed as 2%. The “Percentage inhibition of ligand binding, Adrenergic α2B (0.03 μM)” value in experiment [2] (0.03 µM) was 41%. Also, the “Percentage inhibition of ligand binding, Adrenergic α1B (0.1 μM)” value in experiment [3] is 27%.
The matching figures for `CN1CCc2c(c3cc(Cl)cnc3n2CC(C)(O)c2ccc(C(F)(F)F)nc2)C1` (single isomer, unassigned) [II-109b]: −10%, 2% and 5%.
Regarding `Cc1cnc2c(c1)c1c(n2CC(O)c2ccc(C#N)nc2)CCN(C)C1` (single isomer, unassigned) [II-114a, 5-[2-(3,6-dimethyl-5,6,7,8-tetrahydro-1,6,9-triaza-fluoren-9-yl)-1-hydroxy-ethyl]-pyridine-2-carbonitrile], in experiment [1] (setting [4]), the “Percentage inhibition of ligand binding, Adrenergic α2A (0.1 μM)” value is 12%. Further, the inhibition (usually the change of the read-out against control, counted positive when it falls) at 0.03 µM in experiment [2] turned out to be 40%. In experiment [3], the “Percentage inhibition of ligand binding, Adrenergic α1B (0.1 μM)” value came to 45%.
For `Cc1cnc2c(c1)c1c(n2CC(O)c2ccc(C#N)nc2)CCN(C)C1` (single isomer, unassigned) [II-114b, 5-[2-(3,6-dimethyl-5,6,7,8-tetrahydro-1,6,9-triaza-fluoren-9-yl)-1-hydroxy-ethyl]-pyridine-2-carbonitrile], the “Percentage inhibition of ligand binding, Adrenergic α2A (0.1 μM)” value in experiment [1] (setting [4]) is given as −5%. Moreover, the “Percentage inhibition of ligand binding, Adrenergic α2B (0.03 μM)” value in experiment [2] was determined as 40%. In addition, the “Percentage inhibition of ligand binding, Adrenergic α1B (0.1 μM)” value in experiment [3] is 7%.
As for `CC(O)(Cn1c2c(c3cc(Cl)ccc31)CN(C1CCC1)CC2)c1cccnc1` (single isomer, unassigned) [II-118b], the “Percentage inhibition of ligand binding, Adrenergic α2A (0.1 μM)” value in experiment [1] (setting [4]) stood at 5%. The “Percentage inhibition of ligand binding, Adrenergic α2B (0.03 μM)” value in experiment [2] (0.03 µM) is given as −3%. Besides, the “Percentage inhibition of ligand binding, Adrenergic α1B (0.1 μM)” value in experiment [3] is listed as 11%.
As for `Cc1ccc2c(c1)c1c(n2CC(O)c2ccc(F)cc2)CCN2CCCC12` (single isomer, unassigned) [II-120a, 1-(4-fluoro-phenyl)-2-(9-methyl-1,2,3,4,5,10c-hexahydro-3a,6-diaza-cyclopenta[c]fluoren-6-yl)-ethanol], the “Percentage inhibition of ligand binding, Adrenergic α2A (0.1 μM)” value in experiment [1] (setting [4]) worked out at 65%. Besides, the inhibition at 0.03 µM in experiment [2] amounted to 101%. Moreover, the inhibition at 0.1 µM in experiment [3] worked out at 99%.
Take `Cc1ccc2c(c1)c1c(n2CC(O)c2ccc(F)cc2)CCN2CCCC12` (single isomer, unassigned) [II-120b, 1-(4-fluoro-phenyl)-2-(9-methyl-1,2,3,4,5,10c-hexahydro-3a,6-diaza-cyclopenta[c]fluoren-6-yl)-ethanol]: in experiment [1] (setting [4]), the “Percentage inhibition of ligand binding, Adrenergic α2A (0.1 μM)” value is recorded as 98%. For the same molecule, the “Percentage inhibition of ligand binding, Adrenergic α2B (0.03 μM)” value in experiment [2] (0.03 µM) came out at 98%. In addition, the “Percentage inhibition of ligand binding, Adrenergic α1B (0.1 μM)” value in experiment [3] is reported as 100%.
`Cc1ccc2c(c1)c1c(n2CC(C)(O)c2ccc(F)cc2)CCN2CCCC12` (single isomer, unassigned) [II-121a, 2-(4-fluoro-phenyl)-1-(9-methyl-1,2,3,4,5,10c-hexahydro-3a,6-diaza-cyclopenta[c]fluoren-6-yl)-propan-2-ol]: the Ki (commonly a measure of affinity in units of concentration, obtained from inhibition or displacement) in experiment [1] came out at 4.52 nM. For the same molecule, the “Percentage inhibition of ligand binding, Adrenergic α2A (0.1 μM)” value in experiment [1] (setting [4]) came out at 92%. Besides, the inhibition at 0.03 µM in experiment [1] (read-out: Percentage inhibition of ligand binding, Adrenergic α2A (0.03 μM), compound at 0.03 μM, [3H]MK-912, repeat datapoints each shown) is 65%; in experiment [2], 103%; in experiment [3] (read-out: Percentage inhibition of ligand binding, Adrenergic α1B (0.03 μM), compound at 0.03 μM), 90%. Further, the inhibition at 0.1 µM in experiment [1] (read-out: Percentage inhibition of ligand binding, Adrenergic α2A (0.1 μM), compound at 0.1 μM, [3H]MK-912, repeat datapoints each shown) was determined as 91%; in experiment [3] it was 97%. Besides, in experiment [2] (0.03 µM), the “Percentage inhibition of ligand binding, Adrenergic α2B (0.03 μM)” value turned out to be 104%. Moreover, the “Percentage inhibition of ligand binding, Adrenergic α1B (0.1 μM)” value in experiment [3] was 98%.
For `Cc1ccc2c(c1)c1c(n2CC(C)(O)c2ccc(F)cc2)CCN2CCCC12` (single isomer, unassigned) [II-121b, 2-(4-fluoro-phenyl)-1-(9-methyl-1,2,3,4,5,10c-hexahydro-3a,6-diaza-cyclopenta[c]fluoren-6-yl)-propan-2-ol], the Ki in experiment [1] stood at 9.18 nM; in experiment [2] (read-out: Ki α2B) it was 0.22 nM. For the same molecule, in experiment [1] (compound at 0.03 μM, [3H]MK-912, repeat datapoints each shown, 0.03 µM), the “Percentage inhibition of ligand binding, Adrenergic α2A (0.03 μM)” value worked out at 54%. Besides, in experiment [1] (setting [4]), the “Percentage inhibition of ligand binding, Adrenergic α2A (0.1 μM)” value is 80% and 85%. In experiment [2] (0.03 µM), the “Percentage inhibition of ligand binding, Adrenergic α2B (0.03 μM)” value is 100% and 103%. Moreover, the “Percentage inhibition of ligand binding, Adrenergic α1B (0.03 μM)” value in experiment [3] (compound at 0.03 μM, 0.03 µM) amounted to 77%. The “Percentage inhibition of ligand binding, Adrenergic α1B (0.1 μM)” value in experiment [3] is 93% and 96%.
Turning to `Cc1cc2c3c(n(CC(C)(O)c4cccnc4)c2cc1Cl)CCN(C)C3` (single isomer, unassigned) [II-123a, 1-(7-chloro-2,8-dimethyl-3,4-dihydro-1H-pyrido[4,3-b]indol-5(2H)-yl)-2-(pyridin-3-yl)propan-2-ol], the “Percentage inhibition of ligand binding, Adrenergic α2A (0.1 μM)” value in experiment [1] (setting [4]) is given as 16%. In experiment [2] (0.03 µM), the “Percentage inhibition of ligand binding, Adrenergic α2B (0.03 μM)” value was determined as 62%. Besides, in experiment [3], the inhibition at 0.1 µM was found to be 41%.
As to `Cc1cc2c3c(n(CC(C)(O)c4cccnc4)c2cc1Cl)CCN(C)C3` (single isomer, unassigned) [II-123b, 1-(7-chloro-2,8-dimethyl-3,4-dihydro-1H-pyrido[4,3-b]indol-5(2H)-yl)-2-(pyridin-3-yl)propan-2-ol], in experiment [1] (setting [4]), the “Percentage inhibition of ligand binding, Adrenergic α2A (0.1 μM)” value amounted to 75%. Besides, the “Percentage inhibition of ligand binding, Adrenergic α2B (0.03 μM)” value in experiment [2] (0.03 µM) is on record as 93%. Also, the “Percentage inhibition of ligand binding, Adrenergic α1B (0.1 μM)” value in experiment [3] was determined as 61%.
Consider `Cc1ccc2c(c1Cl)c1c(n2CC(C)(O)c2cccnc2)CCN(C)C1` (single isomer, unassigned) [II-124a, 1-(9-chloro-2,8-dimethyl-3,4-dihydro-1H-pyrido[4,3-b]indol-5(2H)-yl)-2-(pyridin-3-yl)propan-2-ol], for which the “Percentage inhibition of ligand binding, Adrenergic α2A (0.1 μM)” value in experiment [1] (setting [4]) was 23%. Also, the inhibition at 0.03 µM in experiment [2] worked out at 26%. Besides, the “Percentage inhibition of ligand binding, Adrenergic α1B (0.1 μM)” value in experiment [3] is recorded as −2%.
`Cc1ccc2c(c1Cl)c1c(n2CC(C)(O)c2cccnc2)CCN(C)C1` (single isomer, unassigned) [II-124b, 1-(9-chloro-2,8-dimethyl-3,4-dihydro-1H-pyrido[4,3-b]indol-5(2H)-yl)-2-(pyridin-3-yl)propan-2-ol]: the “Percentage inhibition of ligand binding, Adrenergic α2A (0.1 μM)” value in experiment [1] (setting [4]) turned out to be 7%. In experiment [2] (0.03 µM), the “Percentage inhibition of ligand binding, Adrenergic α2B (0.03 μM)” value amounted to 18%. For the same molecule, in experiment [3], the “Percentage inhibition of ligand binding, Adrenergic α1B (0.1 μM)” value is reported as 10%.

The values above are taken from patent publication US8791132B2, “Compounds and methods for treatment of hypertension” (Medivation Technologies, Inc., priority 2011, dated 2014).
